Test results reported in PMC10653858 (mBio, 2023).

Experiments:
LegAS4 = format: binding, L. pneumophila strain Philadelphia; conditions: pH 7.5
SET domain = format: binding, L. pneumophila; conditions: pH 8
LegAS4 enzymes = format: binding, L. pneumophila strain Philadelphia

Row | Molecule | Peptide binding to wild-type LegAS4, in words (LegAS4) | SAM binding of the SET domain alone, in words (SET domain) | SAM binding of the different proteins, in words (LegAS4 enzymes)
1 | ARTKQT-K(Biotin)-NH2 [H3 peptide (Ala1-Ala7)] | not binding the enzyme |  | 
2 | C[S+](CC[C@H](N)C(=O)[O-])C[C@H]1O[C@@H](n2cnc3c(N)ncnc32)[C@H](O)[C@@H]1O (stereo partly drawn) [SAM] |  | greatly decreased SAM binding | same binding capacity to SAM
